Data: the NIST ThermoML archive (doi:10.1016/j.jct.2008.10.002)

Experiment: xn = mol fraction of the nth substance listed
Settings: 101.3 kPa, Liquid, Vibrating tube method

CCCCn1cc[n+](C)c1.O=S(=O)([O-])C(F)(F)F [1-butyl-3-methylimidazolium trifluoromethanesulfonate] + O
mass density [kg/m3]
Settings	293.15 K	298.15 K	303.15 K	308.15 K	313.15 K	318.15 K
x1 = 0.0496	–	1116.9	1113.8	1110.6	1107.3	1103.9
x1 = 0.1012	–	1173.2	1169.5	1165.7	1161.9	1158
x1 = 0.1415	–	1199	1195.1	1191.2	1187.1	1183.1
x1 = 0.197	–	1223.4	1219.3	1215.3	1211.2	1207
x1 = 0.2965	–	1248.4	1244.3	1240.2	1236	1231.9
x1 = 0.3369	–	1255.6	1251.5	1247.4	1243.3	1239.1
x1 = 0.3873	–	1262.7	1258.6	1254.5	1250.4	1246.3
x1 = 0.4868	–	1273.2	1269.1	1265.1	1261	1256.9
x1 = 0.5637	–	1279.1	1275.1	1271	1267	1263
x1 = 0.6636	–	1285.1	1281.1	1277.1	1273.1	1269.1
x1 = 0.7124	–	1287.6	1283.6	1279.6	1275.6	1271.6
x1 = 0.796	1295.2	1291.2	1287.2	1283.2	1279.2	1275.3
x1 = 0.9017	1298.8	1294.8	1290.9	1286.9	1283	1279
x1 = 0.9456	1300.1	1296.1	1292.2	1288.2	1284.3	1280.3
